The source of these data is patent US8877791B2, “Inhibitors of pyruvate kinase and methods of treating disease” (Beth Israel Deaconess Medical Center, Inc., priority 2006, dated 2014).

Data set [1] deals with PKM2 (Homo sapiens (Human), UniProt P14618). Briefly: Recombinant PKM2 enzyme activity in the presence of FBP (LDH-coupled NADH consumption). The following applies: for IC50: recombinant pyruvate kinase, enzyme activity at various concentrations of inhibitor, read-out: IC50 in vitro (PKM2); for PKM2 inhibition of enzyme activity relative to the absence of compound: screening concentration estimated at 50 μM. It counts as biochemical. On the procedure: (§1) Recombinant PKM1 and PKM2 were expressed in E. coli and purified using an Ni-NTA column according to standard protocols. PKM2 ([…]) was mixed with the following components: 0.6 mM ADP, 0.5 mM phosphoenolpyruvate, 200 μM NADH, 1-4 units of lactate dehydrogenase, 50 μM FBP, 1 mM DTT, 0.02% Brij 35, 5% glycerol, and the test molecule with a final DMSO concentration of 5%. A control reaction lacked the test molecule. The test molecules used in this example were selected from a library containing over 100,000 compounds.
Primary screening was performed using PKM2 in the presence of FBP. […] Activity was measured by monitoring the concentration of NADH. Pyruvate, produced by the enzymatic activity of pyruvate kinase, is converted into lactate by lactate dehydrogenase, which requires the consumption of NADH (NADH→NAD^+). Thus, the activity of PKM2 was indirectly measured by monitoring the consumption of NADH through fluorescence assays. Additionally, the activity of the PKM2 enzyme was directly monitored by measuring the production of ATP, as ATP is produced when phosphoenolpyruvate is converted to pyruvate by PKM2.
(§2) For in vitro studies, recombinant pyruvate kinase was incubated with the compound indicated (Table 2) and the activity of the enzyme assessed, as described in Example 4. To determine the IC50, enzyme activity was determined at various concentrations of inhibitor. The percentages shown in Table 2 reflect the inhibition of enzyme activity relative to the absence of compound when the enzyme is incubated with 50 μM of the compound indicated. For in vivo studies, human lung cancer cell lines were incubated with increasing concentrations of the compound indicated and the concentration required to kill >90% of the cells is reported.

Data set [2] concerns the target PKM1 (Homo sapiens (Human), UniProt P14618). Briefly: Recombinant PKM1 enzyme activity (same screening method). It counts as biochemical. The conditions noted are these: screening concentration estimated at 50 μM. On the procedure: as §1
This same screening method was then used to retest candidate molecules for the inhibition of PKM1 to determine which candidate compounds are active against PKM2, but not PKM1.
as §2

In data set [3] the test system is H1299 and A549 human lung cancer cells. Description: Killing of human lung cancer cell lines by increasing concentrations of compound. It counts as cell-based. The following applies: concentration required to kill >90% of the cells, read-out: IC50 in vivo. On the procedure: as §2
Human lung cancer cells were exposed to increasing concentrations of candidate compounds A2 and D1. The toxicity of the compounds was measured by determining the percentage of surviving cells. Cells were mock-treated with DMSO as a control. […] depicts the toxicity of compounds A2 (FIG. 8a) and D1 (FIG. 8b) in H1299 cells compared to mock treatment with DMSO.

Data set [4] has as its system FL5.12 cells. Briefly: Toxicity in FL5.12 cells with and without growth factor (IL-3). It is filed as cell-based, mouse. The conditions noted are these: twenty hours of treatment, presence and absence of IL-3. Here is the method: Mouse pre-lymphocyte cells (FL5.12 cells) were treated with candidate compounds A2 (FIG. 9a) and D1 (FIG. 9b) for twenty hours in the presence and absence of growth factor (IL-3).

Each structure is given as a SMILES string.

A word on the IC50: it is the concentration that inhibits the measured activity by half.

Chain of PKM2 (P14618 whole entry, species assumed): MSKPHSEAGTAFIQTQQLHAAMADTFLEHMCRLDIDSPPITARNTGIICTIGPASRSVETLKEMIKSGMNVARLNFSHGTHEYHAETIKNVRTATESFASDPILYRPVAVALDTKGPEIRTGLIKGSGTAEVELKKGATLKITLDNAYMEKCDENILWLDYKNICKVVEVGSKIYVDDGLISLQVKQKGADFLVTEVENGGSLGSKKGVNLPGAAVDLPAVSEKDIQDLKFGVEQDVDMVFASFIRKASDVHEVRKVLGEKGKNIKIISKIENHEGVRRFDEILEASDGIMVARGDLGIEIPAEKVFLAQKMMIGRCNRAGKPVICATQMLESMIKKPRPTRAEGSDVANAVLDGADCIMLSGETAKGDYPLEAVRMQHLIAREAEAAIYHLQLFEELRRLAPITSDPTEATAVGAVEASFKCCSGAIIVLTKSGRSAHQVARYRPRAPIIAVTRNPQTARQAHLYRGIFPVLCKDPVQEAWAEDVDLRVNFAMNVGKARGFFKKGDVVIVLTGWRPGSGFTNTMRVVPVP
Chain of PKM1 (P14618 other isoform, or with tags, fused parts or gaps, species assumed): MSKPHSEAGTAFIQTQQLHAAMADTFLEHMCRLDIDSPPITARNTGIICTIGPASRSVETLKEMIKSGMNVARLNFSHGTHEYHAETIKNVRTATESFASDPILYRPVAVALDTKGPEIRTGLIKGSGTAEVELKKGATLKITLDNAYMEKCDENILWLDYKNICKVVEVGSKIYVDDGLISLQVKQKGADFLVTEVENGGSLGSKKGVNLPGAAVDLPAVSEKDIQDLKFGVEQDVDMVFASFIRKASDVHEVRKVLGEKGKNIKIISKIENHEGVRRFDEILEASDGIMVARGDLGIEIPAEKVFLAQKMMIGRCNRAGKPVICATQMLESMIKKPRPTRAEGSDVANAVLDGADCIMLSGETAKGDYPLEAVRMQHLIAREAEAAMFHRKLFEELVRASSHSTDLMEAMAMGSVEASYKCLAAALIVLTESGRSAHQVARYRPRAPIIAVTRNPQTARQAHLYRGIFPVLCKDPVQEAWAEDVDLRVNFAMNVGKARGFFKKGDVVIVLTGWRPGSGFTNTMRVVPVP

Consider `CC(=O)CSc1ccc(-n2c(C)ccc2C)cc1` [Compound A1], for which, in data set [1], the IC50 was around 90 µM and the “PKM2 inhibition of enzyme activity relative to the absence of compound” value is recorded as 50%. The “PKM1 inhibition of enzyme activity relative to the absence of compound” value in data set [2] is 15%. Further, in data set [3], the Concentration killing >90% of cells is above 100 µM.

`CCCCCN1/C(=C/C=C/c2n(CCCCC)c3cc(Cl)c(Cl)cc3[n+]2CCCC)N(CCCC)c2cc(Cl)c(Cl)cc21` [Compound B1]: in data set [1], the concentration for half-maximal inhibition (IC50) is around 10 µM and the “PKM2 inhibition of enzyme activity relative to the absence of compound” value is 85%. For the same compound, the “PKM1 inhibition of enzyme activity relative to the absence of compound” value in data set [2] is listed as 0%.

`O=C(O)CN1C(=O)/C(=C/c2ccc(OC(=O)c3ccccc3I)cc2)SC1=S` [Compound D1]: in data set [1], the half-inhibitory concentration (IC50) turned out to be 20 µM and the “PKM2 inhibition of enzyme activity relative to the absence of compound” value is on record as 70%. Further, in data set [2], the “PKM1 inhibition of enzyme activity relative to the absence of compound” value is reported as 15%. Moreover, the Concentration killing >90% of cells in data set [3] is around 250 µM. For the same compound, in data set [4], the “Toxicity in FL5.12 cells, effect of growth factor withdrawal” value is recorded as “Growth factor withdrawal increases the toxicity”.

As to `C=C(NC(C)C)c1cc2c(=O)oc3ccc(C)cc3c2s1` [Compound G1], the IC50 in data set [1] was around 70 µM. Moreover, the Concentration killing >90% of cells in data set [3] was above 500 µM.

Take `O=C1C2C3C=CC(C3)C2C(=O)N1c1nc[nH]n1` (stereo not shown) [Compound H1]: the IC50 in data set [1] was 90 µM. Also, the Concentration killing >90% of cells in data set [3] is above 500 µM.
